Results on 14 compounds are retold here after patent US6495568B1, “Hydroxamic acid derivatives as matrix metalloprotease (MMP) inhibitors” (Warner-Lambert Company, priority 1997, dated 2002).

`CCCCC(C(=O)NO)S(=O)(=O)N1CC=C(c2ccc(-c3ccccc3)cc2)CC1` (racemic) [Example 13, N-Hydroxy-2(R,S)-[4-(4-phenylphenyl)-1,2,3,6-tetrahydropyridin-1-ylsulphonyl]hexanamide] had a melting point of 186 to 189 °C. With `C=C(C)CC(C(=O)NO)S(=O)(=O)N1CC=C(c2ccc(-c3ccccc3)cc2)CC1` (racemic) [Example 14, N-Hydroxy-4-methyl-2(R,S)-[4-(4-phenylphenyl)-1,2,3,6-tetrahydropyridin-1-ylsulphonyl]pent-4-enamide] the figure was 170 to 171 °C; with `COCCC(C(=O)NO)S(=O)(=O)N1CC=C(c2ccc(-c3ccccc3)c(C)c2)CC1` (racemic) [Example 48, N-Hydroxy-4-methoxy-2(R,S)-[4-(3-methyl-4-phenylphenyl)-1,2,3,6-tetrahydropyridin-1-ylsulphonyl]butanamide], 135 to 136 °C; with `O=C(NO)C(Cc1ccccc1)S(=O)(=O)N1CC=C(c2ccc(-c3ccccc3)cc2)CC1` (racemic) [Example 53, N-Hydroxy-3-phenyl-2(R,S)-[4-(4-phenylphenyl)-1,2,3,6-tetrahydropyridin-1-ylsulphonyl]propanamide], 202 to 205 °C.

`O=C(CS(=O)(=O)N1CC=C(c2ccc(-c3ccccc3)cc2)CC1)NO` [Example 1, N-Hydroxy-2-[4-(4-phenylphenyl)-1,2,3,6-tetrahydropyridin-1-ylsulphonyl]acetamide] came in with a melting point of 216 to 218 °C. Next, `O=C(CS(=O)(=O)N1CC=C(c2ccccc2)CC1)NO` [Example 4, N-Hydroxy-2-(4-phenyl-1,2,3,6-tetrahydropyridin-1-ylsulphonyl)acetamide]: 175 to 176 °C; `O=C(CS(=O)(=O)N1CCC(c2ccccc2)CC1)NO` [Example 5, N-Hydroxy-2-(4-phenylpiperidin-1-ylsulphonyl)acetamide]: 185 to 187 °C; `O=C(CS(=O)(=O)N1CCC(Cc2ccccc2)CC1)NO` [Example 6, N-Hydroxy-2-(4-benzylpiperidin-1-ylsulphonyl)acetamide]: 132 to 135 °C. With `COc1cc(C2=CCN(S(=O)(=O)CC(=O)NO)CC2)ccc1-c1ccccc1` [Example 18, N-Hydroxy-2-[4-(3-methoxy-4-phenylphenyl)-1,2,3,6-tetrahydropyridin-1-ylsulphonyl]acetamide] the figure was 175 to 177 °C; with `COc1cc(C2=CCN(S(=O)(=O)C(C)(C)C(=O)NO)CC2)ccc1-c1ccccc1` [Example 19, N-Hydroxy-2-[4-(3-methoxy-4-phenylphenyl)-1,2,3,6-tetrahydropyridin-1-ylsulphonyl]-2-methylpropanamide], 156 to 158 °C; with `O=C(CS(=O)(=O)N1CC=C(c2ccc(-c3ccccc3)c(F)c2)CC1)NO` [Example 20, N-Hydroxy-2-[4-(3-fluoro-4-phenylphenyl)-1,2,3,6-tetrahydropyridin-1-ylsulphonyl]acetamide], 184 to 188 °C. Next, `CCOc1cccc(-c2ccc(C3=CCN(S(=O)(=O)CC(=O)NO)CC3)cc2)c1` [Example 21, N-Hydroxy-2-{4-[4-(3-ethoxyphenyl)phenyl]-1,2,3,6-tetrahydropyridin-1-ylsulphonyl}acetamide]: 168 to 170 °C; `COc1cccc(-c2ccc(C3=CCN(S(=O)(=O)CC(=O)NO)CC3)cc2C)c1` [Example 22, N-Hydroxy-2-{4-[4-(3-methoxyphenyl)-3-methylphenyl]-1,2,3,6-tetrahydropyridin-1-ylsulphonyl}acetamide]: 162 to 165 °C. With `CCc1cccc(-c2ccc(C3=CCN(S(=O)(=O)CC(=O)NO)CC3)cc2C)c1` [Example 23, N-Hydroxy-2-{4-[4-(3-ethylphenyl)-3-methylphenyl]-1,2,3,6-tetrahydropyridin-1-ylsulphonyl}acetamide], the melting point was in the range of 151 to 154 °C.
